Reference: ChEMBL document CHEMBL2074071, “Fluorescent modified phosphatidylcholine floppase activity of reconstituted multidrug resistance-associated protein MRP1” (Biochim Biophys Acta, 2004)

Biological target: Multidrug resistance-associated protein 1 (Homo sapiens, UniProt P33527)
Assay: TP_TRANSPORTER: translocation from outer to inner leaflet in MRP1-asolectin proteoliposome
Type: functional, subcellular

Multidrug resistance-associated protein 1, sequence (P33527 whole entry): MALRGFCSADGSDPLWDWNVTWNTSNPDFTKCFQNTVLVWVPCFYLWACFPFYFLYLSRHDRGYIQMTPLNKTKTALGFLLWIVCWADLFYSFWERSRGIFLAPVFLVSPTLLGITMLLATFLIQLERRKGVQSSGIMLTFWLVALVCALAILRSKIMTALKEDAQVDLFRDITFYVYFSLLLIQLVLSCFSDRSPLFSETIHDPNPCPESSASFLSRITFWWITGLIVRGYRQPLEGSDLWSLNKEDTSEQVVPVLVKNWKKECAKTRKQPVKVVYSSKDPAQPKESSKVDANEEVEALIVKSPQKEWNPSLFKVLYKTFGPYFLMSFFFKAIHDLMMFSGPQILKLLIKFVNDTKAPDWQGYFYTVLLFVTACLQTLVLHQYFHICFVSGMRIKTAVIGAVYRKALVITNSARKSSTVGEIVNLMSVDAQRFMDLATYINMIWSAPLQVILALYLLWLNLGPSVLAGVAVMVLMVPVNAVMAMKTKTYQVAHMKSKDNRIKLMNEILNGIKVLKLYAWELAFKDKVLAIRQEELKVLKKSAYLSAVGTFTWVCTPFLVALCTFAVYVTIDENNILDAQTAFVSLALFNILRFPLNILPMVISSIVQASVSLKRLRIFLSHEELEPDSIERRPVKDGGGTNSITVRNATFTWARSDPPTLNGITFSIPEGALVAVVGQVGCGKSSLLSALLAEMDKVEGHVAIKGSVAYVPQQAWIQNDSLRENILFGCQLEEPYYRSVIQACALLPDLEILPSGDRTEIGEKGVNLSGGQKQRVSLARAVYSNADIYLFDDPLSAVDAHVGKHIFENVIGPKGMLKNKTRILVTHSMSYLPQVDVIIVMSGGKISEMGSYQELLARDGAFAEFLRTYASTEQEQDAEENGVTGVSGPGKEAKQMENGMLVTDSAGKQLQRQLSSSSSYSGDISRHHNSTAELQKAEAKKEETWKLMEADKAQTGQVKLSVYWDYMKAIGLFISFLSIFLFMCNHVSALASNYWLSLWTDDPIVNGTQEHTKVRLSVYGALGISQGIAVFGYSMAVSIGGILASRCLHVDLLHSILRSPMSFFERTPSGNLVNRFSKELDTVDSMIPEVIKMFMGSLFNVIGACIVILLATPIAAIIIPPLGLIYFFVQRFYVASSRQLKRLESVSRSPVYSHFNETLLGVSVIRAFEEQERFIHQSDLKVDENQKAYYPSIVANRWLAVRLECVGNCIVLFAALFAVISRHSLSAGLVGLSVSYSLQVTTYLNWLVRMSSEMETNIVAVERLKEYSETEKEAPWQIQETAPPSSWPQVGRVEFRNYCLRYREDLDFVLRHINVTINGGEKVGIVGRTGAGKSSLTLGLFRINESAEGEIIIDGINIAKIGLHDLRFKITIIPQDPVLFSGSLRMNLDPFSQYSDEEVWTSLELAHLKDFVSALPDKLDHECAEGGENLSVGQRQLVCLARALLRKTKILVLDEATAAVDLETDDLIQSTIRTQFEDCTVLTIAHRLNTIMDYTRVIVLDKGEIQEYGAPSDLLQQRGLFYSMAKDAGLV

Activity: substrate []
SMILES: CCCCCC(=O)OCC(COP(=O)([O-])OCC[N+](C)(C)c1ccc([N+](=O)[O-])c2nonc12)OC(=O)CCCCC (stereo unspecified)
